As usually defined, the MIC is the smallest concentration in the dilution series that meets the test's criterion for growth inhibition.

The test system of experiment [1] is Neisseria gonorrhoeae strain WHO Z. Kind of experiment: MIC of Triton X-100 with/without PBT2. The format is cell-based. An excerpt:
Without wishing to be bound by theory, the inventors hypothesise that this may due to the fact PBT2 is a derivative of the iron chelator clioquinol and PBT2 has the capacity to chelate a range of heavy metals including iron. Genes encoding metal homeostasis proteins (blue dots) are presented in the volcano plot (FIG. 3). Metal homeostasis was previously identified as a crucial feature of gonococcal biology, and therefore it is postulated this may be an “Achilles' heel” with respect to Neisseria gonorrhoeae ionophore sensitivity. […] MpeR is an iron-repressed, AraC-like protein that regulates the mtr efflux locus (involved in antimicrobial susceptibility) in Neisseria gonorrhoeae. Up-regulation of mpeR (e. g. by PBT2) down-regulates MtrF and, in turn, would increase Neisseria gonorrhoeae sensitivity to the antimicrobial detergent, Triton X-100 (22). […] Thus, without wishing to be bound to theory, the inventors hypothesise that PBT2 may influence bacterial iron homeostasis and trigger general defence mechanisms, such as Mtr-mediated antimicrobial efflux, but the Mtr-system may be unable to protect against PBT2.

Experiment [2] shares this test system. The settings on record: strain phenotype; cited from earlier work.
In experiment [3] the test system is erythromycin-resistant group A Streptococcus (GAS). The settings on record: in the absence of an antibiotic; cited from earlier work.
The subject of experiment [4] is Streptococcus uberis (S. uberis). The settings on record: in the absence of an antibiotic; cited from earlier work.
In experiment [5] the test system is vancomycin-resistant Enterococcus (VRE). As to conditions: in the absence of an antibiotic; cited from earlier work.
For experiment [6], the system named is methicillin-resistant Staphylococcus aureus (MRSA). The settings on record: in the absence of an antibiotic; cited from earlier work.
The subject of a further experiment is Neisseria gonorrhoeae. The experiment is described as follows: Antibiotic resistance development test over 30 days. As to conditions: control; 30 days of treatment. The experiment is classed as cell-based. How it is done: FIG. 2: Antibiotic resistance development assay of PBT2.
Resistance development was tested over a 30 day period with PBT2 and using Kanamycin as a control.

Experiment [7] has as its system Neisseria gonorrhoeae strain WHO Z. The experiment is described as follows: Ex vivo Neisseria gonorrhoeae infection of human cervical (Pex) cells. The experiment is classed as cell-based. An excerpt:
FIG. 4: Chart indicating PBT2 can cure Neisseria gonorrhoeae infection of human cervical (Pex) cells. […] Ceftriaxone (CRO, positive control) is currently recommended for gonorrhoea treatment. Veh—0.1% DMSO vehicle control; UT—untreated; * p<0.0001 versus vehicle for CRO or PBT2 treatment.
To assess the ability of PBT2 to cure an established gonococcal infection in a human ex vivo system, primary human cervical epithelial (Pex) cells were challenged with Neisseria gonorrhoeae strain WHO Z for 90 min and then treated with 0.1% DMSO (vehicle control), PBT2 (0.016 mg/L to 4.695 mg/L), or ceftriaxone (0.5 mg/L, positive control) for 24 h. Viable gonococci were then enumerated. […] PBT2-induced Pex cell cytotoxicity was not observed during the assay.

Experiment [8] has as its system Neisseria gonorrhoeae ATCC49226. The experiment is described as follows: MIC of PBT2 and comparators against CLSI reference strain. The experiment is classed as cell-based. The settings on record: ATCC49226, comparator antimicrobials. An excerpt: 13 multidrug resistant WHO strains of Neisseria gonorrhoeae were selected to cover antimicrobial resistance phenotypes to all the antibiotics currently used.

Experiment [9] shares this test system. As to conditions: cited from earlier work.

Consider Triton X-100, for which the “MIC of Triton X-100” value was 125 µg/mL in [1] (in the presence of 0.156 mg/L (sub-MIC) PBT2) and > 1000 µg/mL in [1] (without PBT2).

`CC[C@H]1OC(=O)[C@H](C)[C@@H](O[C@H]2C[C@@](C)(OC)[C@@H](O)[C@H](C)O2)[C@H](C)[C@@H](O[C@@H]2O[C@H](C)C[C@H](N(C)C)[C@H]2O)[C@](C)(O)C[C@@H](C)CN(C)[C@H](C)[C@@H](O)[C@]1(C)O` [azithromycin]: the “resistance of WHO Z” value in experiment [2] is given as “resistant”.

For zinc [reference compound], the antibacterial activity entry in [3], in [4], in experiment [5] and in [6] was “neither PBT2 nor zinc alone displayed antibacterial activity which would be suitable to treat an infection” throughout.

With `NC[C@H]1O[C@H](O[C@H]2[C@H](O)[C@@H](O[C@H]3O[C@H](CO)[C@@H](O)[C@H](N)[C@H]3O)[C@H](N)C[C@@H]2N)[C@H](O)[C@@H](O)[C@@H]1O` [Kanamycin, reference compound], in the experiment on Neisseria gonorrhoeae, the “development of resistance to kanamycin” value is “development of resistance”.

Take `CO/N=C(\C(=O)N[C@@H]1C(=O)N2C(C(=O)O)=C(CSc3nc(=O)c(=O)[nH]n3C)CS[C@H]12)c1csc(N)n1` [ceftriaxone, reference compound]: the “susceptibility of WHO Z” value in experiment [7] (ceftriaxone positive control (0.5 mg/L)) is “susceptible”. Besides, in experiment [7] (survival at 24 h, FIG. 4, CRO 0.5 mg/L), the p versus vehicle is < 0.0001. Besides, the “resistance of WHO Z” value in experiment [2] is “resistant”.

Take `O=C(O)c1cn(C2CC2)c2cc(N3CCNCC3)c(F)cc2c1=O` [Ciprofloxacin]: the “resistance of WHO Z” value in [2] is “resistant”.

In the case of `C=CC1=C(C(=O)O)N2C(=O)[C@@H](NC(=O)/C(=N\OCC(=O)O)c3csc(N)n3)[C@H]2SC1` [cefixime], in [2], the “resistance of WHO Z” value was “resistant”.

In the case of `CC1(C)S[C@@H]2[C@H](NC(=O)Cc3ccccc3)C(=O)N2[C@H]1C(=O)O` [penicillin G], the “resistance of WHO Z” value in [2] is “resistant”.

As for `CN(C)[C@@H]1C(O)=C(C(N)=O)C(=O)[C@@]2(O)C(O)=C3C(=O)c4c(O)cccc4[C@@](C)(O)[C@H]3C[C@@H]12` [Tetracycline, reference compound], the MIC in experiment [8] (agar dilution) and in experiment [8] (broth dilution) was 0.25 µg/mL each time. The “CLSI agar dilution MIC QC range” value in [9] is 0.25 to 1 µg/mL. Also, the “resistance of WHO Z” value in experiment [2] was “resistant”.

The values above are taken from patent US20260306476A1, “ANTIBACTERIAL COMPOUND PBT2” (priority 2022, published 2026).
